Data taken from US10562920B2, “Ln(III) and Ga(III) metallacrown complexes” (The Regents of the University of Michigan, priority 2015, dated 2020).
“And” between values parts separate entries of the source, which are not always exact repeats. Equal values may be shown once. Marks after values point to notes of the source that are not given here. Blank lines part the entries; values can stand above or below the substance they belong to.

What was measured:
Assay type in all cases: physicochemical
[1] = Luminescence lifetimes under excitation at 355 nm; settings: for τobs/μs: Ga8Ln2(shi)8, solid state
Method: (§1) Luminescence data were collected on samples placed into 2.4 mm i.d. quartz capillaries or quartz Suprasil cells. Emission and excitation spectra were measured on a Horiba-Jobin-YvonFluorolog 3 spectrofluorimeter equipped with either a visible photomultiplier tube (PMT) (220-800 nm, R928P; Hamamatsu), a NIR solid-state InGaAs detector cooled to 77 K (800-1600 nm, DSS-IGA020L; Jobin-Yvon), or NIR PMTs (950-1450 nm, H10330-45; 950-1650 nm, H10330-75; Hamamatsu). All spectra were corrected for instrumental functions. Luminescence lifetimes were determined under excitation at 355 nm provided by a Nd:YAG laser (YG 980; Quantel), while the signal was detected in the NIR by the aforementioned PMT (H10330-75). The output signal from the detectors was then fed to a 500 MHz bandpass digital oscilloscope (TDS 754C; Tektronix) and then transferred to a PC for treatment with Origin 8®. Luminescence lifetimes are averages of at least three independent measurements. Quantum yields were determined with a Fluorolog 3 spectrofluorimeter according to an absolute method using an integration sphere (GMP SA). Each sample was measured several times under slightly different experimental conditions. Estimated experimental error for quantum yields determination is 10%.

[2] = Quantum yields by absolute method using an integration sphere; settings: for QLn^L/%: Ga6Ln(shi)9, solid state
Method: as §1

[3] = Ligand triplet state from phosphorescence of Gd3+ analogues; settings: for ΔE (cm^−1), energy gap between ligand triplet state and Ln3+ emissive state: T1 = 22 170 cm^−1, Ga4Ln(shi)4; for ligand triplet state (T1, 0-0 component of phosphorescence), wavelength / ligand triplet state energy (T1, 0-0 component of phosphorescence): solid state, 77 K, excitation 350 nm
Method: as §1
Phosphorescence can be observed by recording the signal emitted from Ga4Gd(shi)4 in time-resolved mode in the solid state at 77K upon excitation at 350 nm and using a 200 μS delay after the excitation flash (FIG. 9). The 0-0 component of this band represents the energy level of the ligand's triplet state (T1=22,170 cm^−1, 451 nm) which is attributed to the energy level responsible for the main contribution of the transfer to the Ln^3+. The T1 level is sufficiently high in energy to populate the excited states of a wide range of visible and NIR-emitting Ln^3+.
Since the Ga8Ln2(shi)8 dimer compounds were insoluble in all solvents, the solid state photophysical data alone were collected. As with the Ga4Gd(shi)4 compound, the Ga8Gd2(shi)8 complex may be used to examine the ligand-based photophysical properties. […] The solid state ligand phosphorescence was obtained at 77 K using an excitation wavelength of 350 nm and a 100 μs delay (FIG. 11). The profile of the phosphorescence is similar to that of Ga4Gd(shi)4 (FIG. 9), which was expected, since both compounds are formed by the same framework ligand, H3shi. The 0-0 transition was determined to be located at 455 nm, or 21 978 cm^−1. This triplet state energy is slightly lower than that of the Ga4Gd(shi)4 compound (22 170 cm^−1), but still is sufficiently high in energy to sensitize visible (Dy^3+, Tb^3+, Sm^3+) and/or NIR emitting (Dy^3+, Sm^3+, Ho^3+, Yb^3+, Pr^3+, Nd^3+, Er^3+) lanthanides.

[4] = Hydration number q from lifetimes in deuterated and protic solvents; settings: from kCH3OH − kCD3OD, equations of footnotes b, c, e, g
Description: One parameter that can be obtained from the recording of luminescence lifetimes is the hydration number q. […] This non-zero q value is particularly detrimental for the intensity of the luminescence (and to the corresponding quantum yield values) of NIR-emitting lanthanides since the overtones of high-energy vibrations of the solvent molecules create a route for non-radiative deactivation.

[5] = Emission spectra under ligand excitation at 350 nm; settings: Ga8Ln2(shi)8, solid state
Method: as §1
Using an excitation wavelength of 350 nm, both visible and NIR emission arising from f-f transitions of different lanthanide ions can be observed (FIG. 13). In general, quantum yields are lower for Ga8Ln2(shi)8 MCs compared to […] (Table 3) except for Ho^3+ analogues which quantum yield is increased by 1.65 times reaching 3.3(1)·10^−3%.

[6] = Ga8Ln2(shi)8, solid state, excitation 350 nm

Substance: [DyGa4(shi)4(H2shi)2(C5H5N)4(NO3)].(C5H5N)2 [Ga4Dyshi6]
τ/μs ([1]; solid state Ga4Ln(shi)6): 3.36(6) μs
QLn^L/% VIS (only Dy) ([2]; solid state Ga4Ln(shi)6, only Dy): 0.222(6) (only Dy) %
QLn^L/% VIS (total) ([2]; solid state Ga4Ln(shi)6, total): 0.308(8) (total) %

Substance: [ErGa4(shi)4(C6H5CO2)4(C5H5N)(CH3OH)].C5H6N.0.5C5H5N [Ga4Er(shi)4]
τobs (μs) ([1]; Ga4Ln(shi)4, CD3OD): 1.74(1) μs
τobs (μs) ([1]; Ga4Ln(shi)4, Solid): 6.75(3) μs
QLn^L (%) (NIR) ([2]; Ga4Ln(shi)4, CD3OD): 4.5(3)·10^−2%
QLn^L (%) (NIR) ([2]; Ga4Ln(shi)4, Solid): 4.4(1)·10^−2%
ΔE (cm^−1), energy gap between ligand triplet state and Ln3+ emissive state [3]: 15 470 cm^−1

Substance: [ErGa4(shi)4(H2shi)2(C5H5N)5].(NO3).(C5H5N) [Ga4Ershi6]
τ/μs ([1]; solid state Ga4Ln(shi)6): 0.220(3) μs
QLn^L/% NIR ([2]; solid state Ga4Ln(shi)6): 1.55(3) · 10^−3%

Substance: [ErGa6(shi)7(Hshi)(H2shi)(C6H16N)3(C5H5N)2].6H2O [Ga6Er(shi)9]
τ/μs ([1]; Ga6Ln(shi)9, solid state): 0.905(8) μs
QLn^L/% [2]: 7.1(2) · 10^−3%

Substance: [Ga4Dy(shi)4(C6H5CO2)4(C5H5N)(CH3OH)].C5H6N.C5H5N.CH3OH
q (hydration number) [4]: 0.7^e
τobs (μs) ([1]; Ga4Ln(shi)4, CD3OD): 25.5(7) μs
τobs (μs) ([1]; Ga4Ln(shi)4, CH3OH): 12.0(1) μs
τobs (μs) ([1]; Ga4Ln(shi)4, Solid): 21.2(2) μs
QLn^L (%) (NIR) ([2]; Ga4Ln(shi)4, CD3OD): 6.0(1) · 10^−2%
QLn^L (%) (visible) ([2]; Ga4Ln(shi)4, CD3OD): 0.78(1) %
QLn^L (%) (NIR) ([2]; Ga4Ln(shi)4, CH3OH): 2.4(1) · 10^−2%
QLn^L (%) (visible) ([2]; Ga4Ln(shi)4, CH3OH): 0.38(1) %
QLn^L (%) (NIR) ([2]; Ga4Ln(shi)4, Solid): 0.21(1) %
QLn^L (%) (visible) ([2]; Ga4Ln(shi)4, Solid): 2.10(1) %
ΔE (cm^−1), energy gap between ligand triplet state and Ln3+ emissive state [3]: 1 070 cm^−1

Substance: [Ga4Eu(shi)4(C6H5CO2)4(C5H5N)(CH3OH)].C5H6N.C5H5N.CH3OH
QLn^L (%) (visible) ([2]; Ga4Ln(shi)4, Solid): 1.59(4) · 10^−2%
ΔE (cm^−1), energy gap between ligand triplet state and Ln3+ emissive state [3]: 4 910 cm^−1

Substance: [Ga4Gd(shi)4(C6H5CO2)4(C5H5N)(CH3OH)].C5H6N.C5H5N.CH3OH
ligand triplet state (T1, 0-0 component of phosphorescence), wavelength [3]: 451 nm
ligand triplet state energy (T1, 0-0 component of phosphorescence) [3]: 22,170 cm^−1 and 22 170 cm^−1

Substance: [Ga4Sm(shi)4(C6H5CO2)4(C5H5N)(CH3OH)].C5H6N.C5H5N.CH3OH
q (hydration number) [4]: 0.8^b
τobs (μs) ([1]; Ga4Ln(shi)4, CD3OD): 255(1) μs
τobs (μs) ([1]; Ga4Ln(shi)4, CH3OH): 27.6(1) μs
τobs (μs) ([1]; Ga4Ln(shi)4, Solid): 148(1) μs
QLn^L (%) (NIR) ([2]; Ga4Ln(shi)4, CD3OD): 0.298(1) %
QLn^L (%) (visible) ([2]; Ga4Ln(shi)4, CD3OD): 2.33(5) %
QLn^L (%) (NIR) ([2]; Ga4Ln(shi)4, CH3OH): 2.65(6) · 10^−2%
QLn^L (%) (visible) ([2]; Ga4Ln(shi)4, CH3OH): 0.252(1) %
QLn^L (%) (NIR) ([2]; Ga4Ln(shi)4, Solid): 0.450(4) %
QLn^L (%) (visible) ([2]; Ga4Ln(shi)4, Solid): 2.46(8) %
ΔE (cm^−1), energy gap between ligand triplet state and Ln3+ emissive state [3]: 4 270 cm^−1

Substance: [Ga8Dy2(shi)8(isophthalate)4(DMF)6].8DMF.2H2O
λem/nm [5]: 575 nm
τobs/μs [1]: 15.0(1) μs
QLn^L (%) (NIR) [2, 6]: 7.5(1) · 10^−2%
QLn^L (%) (visible) [2, 6]: 0.85(1) %

Substance: [Ga8Er2(shi)8(isophthalate)4(DMF)6].8DMF.2H2O
λem/nm [5]: 1525 nm
τobs/μs [1]: 5.23(2) μs
QLn^L (%) (NIR) [2, 6]: 5.7(1) · 10^−3%

Substance: [Ga8Gd2(shi)8(isophthalate)4(DMF)6].8DMF.H2O
ligand triplet state (T1, 0-0 component of phosphorescence), wavelength [3]: 455 nm
ligand triplet state energy (T1, 0-0 component of phosphorescence) [3]: 21 978 cm^−1

Substance: [Ga8Ho2(shi)8(isophthalate)4(DMF)6].8DMF.2H2O
λem/nm [5]: 978 nm
τobs/μs [1]: 0.032(1) μs
QLn^L (%) (NIR) [2, 6]: 3.3(1) · 10^−3%

Substance: [Ga8Nd2(shi)8(isophthalate)4(DMF)6].8DMF.H2O
λem/nm [5]: 1064 nm
τobs/μs [1]: 2.46(1) μs
QLn^L (%) (NIR) [2, 6]: 0.99(2) %

Substance: [Ga8Pr2(shi)8(isophthalate)4(DMF)6].8DMF.2H2O
λem/nm [5]: 1020 nm
τobs/μs [1]: 0.901(6) μs
QLn^L (%) (NIR) [2, 6]: 9.3(1) · 10^−3%

Substance: [Ga8Sm2(shi)8(isophthalate)4(DMF)6].8DMF.2H2O
λem/nm [5]: 597 nm
τobs/μs [1]: 117(1) μs
QLn^L (%) (NIR) [2, 6]: 0.269(3) %
QLn^L (%) (visible) [2, 6]: 2.09(5) %

Substance: [Ga8Tb2(shi)8(isophthalate)4(DMF)6].8DMF.H2O
λem/nm [5]: 545 nm
τobs/μs [1]: 1410(1) μs
QLn^L (%) (visible) [2, 6]: 31.2(2) %

Substance: [Ga8Yb2(shi)8(isophthalate)4(DMF)6].8DMF.3H2O
λem/nm [5]: 980 nm
τobs/μs [1]: 30.5(1) μs
QLn^L (%) (NIR) [2, 6]: 2.43(6) %

Substance: [HoGa4(shi)4(C6H5CO2)4(C5H5N)(CH3OH)].C5H6N.C5H5N.CH3OH [Ga4Ho(shi)4]
τobs (μs) ([1]; Ga4Ln(shi)4, Solid): 0.029(1) μs
QLn^L (%) (NIR) ([2]; Ga4Ln(shi)4, Solid): 2.0(2)·10^−3%
ΔE (cm^−1), energy gap between ligand triplet state and Ln3+ emissive state [3]: 6 670 cm^−1

Substance: [HoGa4(shi)4(H2shi)2(C5H5N)4(NO3)].(C5H5N)2 [Ga4Hoshi6]
τ/μs ([1]; solid state Ga4Ln(shi)6): 0.032(1) μs

Next, values leading:

τ/μs ([1]; Ga6Ln(shi)9, solid state): 0.037(1) μs
QLn^L/% [2]: 1.1(2) · 10^−3%
Substance: [HoGa6(shi)7(Hshi)(H2shi)(C6H16N)3(C5H5N)2].8H2O [Ga6Ho(shi)9]

τ/μs ([1]; Ga6Ln(shi)9, solid state): 0.71(1) μs
QLn^L/% [2]: 0.171(5) %
Substance: [NdGa6(shi)7(Hshi)(H2shi)(C6H16N)3(C5H5N)2].7H2O [Ga6Nd(shi)9]

τ/μs ([1]; Ga6Ln(shi)9, solid state): 0.063(1) μs
QLn^L/% [2]: 3.7(2) · 10^−3%
Substance: [PrGa6(shi)7(Hshi)(H2shi)(C6H16N)3(C5H5N)2].4H2O [Ga6Pr(shi)9]

τ/μs ([1]; Ga6Ln(shi)9, solid state): 70(1) μs
QLn^L/% [2]: 1.64(9) %
Substance: [SmGa6(shi)7(Hshi)(H2shi)(C6H16N)3(C5H5N)2].6H2O [Ga6Sm(shi)9]

τ/μs ([1]; solid state Ga4Ln(shi)6): 509(7) μs
QLn^L/% VIS ([2]; solid state Ga4Ln(shi)6): 11.3(5) %
Substance: [TbGa4(shi)4(H2shi)2(C5H5N)4(NO3)].(C5H5N)2 [Ga4Tbshi6]

QLn^L/% [2]: 0.189(3) %
Substance: [TbGa6(shi)7(Hshi)(H2shi)(C6H16N)3(C5H5N)2] [Ga6Tb(shi)9]

τobs (μs) ([1]; Ga4Ln(shi)4, Solid): 1.47(1) μs
QLn^L (%) (visible) ([2]; Ga4Ln(shi)4, Solid): 0.02(1)^f %
ΔE (cm^−1), energy gap between ligand triplet state and Ln3+ emissive state [3]: 820 cm⁻¹
Substance: [TmGa4(shi)4(C6H5CO2)4(C5H5N)(CH3OH)].C5H6N.0.5C5H5N [Ga4Tm(shi)4]

τ/μs ([1]; solid state Ga4Ln(shi)6): 2.99(2) μs
QLn^L/% NIR ([2]; solid state Ga4Ln(shi)6): 0.216(6) %
Substance: [YbGa4(shi)4(H2shi)2(C5H5N)5].(NO3).(C5H5N)2 [Ga4Ybshi6]

τ/μs ([1]; Ga6Ln(shi)9, solid state): 7.26(2) μs
QLn^L/% [2]: 0.65(3) %
Substance: [YbGa6(shi)7(Hshi)(H2shi)(C6H16N)3(C5H5N)2].8H2O [Ga6Yb(shi)9]
